# Earlier results, collected in US6887210B2, “Devices and methods for obtaining mammary fluid samples for evaluating breast diseases, including cancer” (Atossa Healthcare, Inc., priority 2000, dated 2005).
# Conditions: rapid removal from plasma by kidney, liver and mammary gland
smiles,measurement,value
CC[C@H](C)[C@@H]1NC(=O)[C@H](Cc2ccc(O)cc2)NC(=O)[C@@H](N)CSSC[C@@H](C(=O)N2CCC[C@H]2C(=O)N[C@@H](CC(C)C)C(=O)NCC(N)=O)NC(=O)[C@H](CC(N)=O)NC(=O)[C@H](CCC(N)=O)NC1=O [oxytocin],half-life of oxytocin in the human bloodstream / circulation,10 to 15 min
